Assay [1] deals with St-domain/STAT binding activity. Put plainly: Electrophoretic gel mobility-shift assay of St-domain/STAT binding in heart nuclear extracts. The arrangement: species or system rat. The following applies: hearts, 30 min ischemia/120 min reperfusion. The source says:
Nuclear extracts were examined in hearts subjected to global ischemia to determine whether there is enhanced STAT binding activity to the St domain of the angiotensinogen promoter. The nuclear heart extracts were examined by the electrophoretic gel mobility-shift assay that exployed the use of the chemically synthesized oligonucleotide sequence of the St domain. The St-domain DNA probe for protein binding was a double-stranded oligonucleotide containing the sequence 5′-GGGTtcCTGGAAGGG-3′ SEQ. ID NO: 2, and complementary strand 5′-CCCTTCCAGgaACCC-3′ SEQ. ID NO: 3, respectively. These probes were end-labeled by polynucleotide kinase and [γ-^32P]ATP. Binding reaction mixture containing 0.5 ng of labeled DNA (1,000 cpm), 2 μg of poly(dI-C), and 1-12 μg of protein in buffer containing 20 mM Hepes, 3% glycerol, 1.5 mM MgCl2, 1 mM DTT, 2 mM EDTA and 50 mM KCl, pH 7.5 was allowed to incubate at 4° C. for 30 min. The reactions were analyzed by electrophoresis on 8% polyacrylanide gel in 0.375× TBE ([…] Tris borate, pH 8.7 and 1.0 mM EDTA). After electrophoresis, the gels were dried and subjected to autoradiography. […] (FIG. 5B). The activation of STATs and the consequent binding to the St-domain in the angiotensinogen promoter accounts for the increase in transcription of angiotensinogen mRNA. […]

In another assay the test system is angiotensinogen mRNA. Put plainly: Angiotensinogen mRNA in hearts subjected to ischemia/reperfusion (primer extension assay). The following applies: 30 min ischemia and 120 min reperfusion. The arrangement: species or system rat. As to the method:
Ischemia was induced by a modified Langendorf-reperfusion method in rat hearts. Hearts from adult male rats were randomly divided into 4 groups and subjected to ischemia/reperfusion. In the ischemic group, hearts were perfused with Krebs-Henseleit buffer for 60 minutes, followed by 30 minutes of global ischemia. In the ischemic/reperfused group, hearts were perfused for 60 minutes, followed by 30 minutes of global ischemia and 120 minutes of reperfusion. Control group hearts were perfused for the same lengths of time.
Rat hearts subjected to ischemia/reperfusion were tested to determine whether activation of the renin-angiotensin system, as reflected by an increase in angiotensinogen mRNA, occurs in ischemic injury. The level of angiotensinogen mRNA was analyzed by primer extension assay using gene-specific DNA probes. A DNA primer spanning the complementary sequence of the rat angiotensinogen cDNA between nucleotides 302 and 279 (5′-[…]-3′) SEQ ID NO: 1 was end-labeled and used to evaluate the expression of angiotensinogen mRNA in total RNA isolated from the rat heart. The primer extension protocol was performed according to instructions provided by the supplier (Progema). Rat GAPDH cDNA specific primer was used as control. There was a marked increase in mRNA level after 30 minutes of ischemia and 120 minutes of reperfusion (FIG. 5A). […]

The subject of assay [2] is hearts subjected to ischemia/reperfusion. The following applies: cited from earlier work.

On to `CCCCc1nc(Cl)c(CO)n1Cc1ccc(-c2ccccc2-c2nn[nH]n2)cc1` [losartan], for which the “St-domain/STAT binding activity (STAT/DNA complex formation)” value in assay [1] is given as “almost entirely abolished”. Further, the “angiotensinogen mRNA level” value in the assay with angiotensinogen mRNA is “reduced it almost entirely to the level of the control sample”.

Regarding `N#C/C(=C\c1ccc(O)c(O)c1)C(=O)NCCCCc1ccccc1` [Tyrphostin AG556], the “cardioprotection / myocardial damage due to ischemia” value in assay [2] is on record as “reduces myocardial damage due to ischemia”.

The record behind these values is US7235588B2, “Method for reducing hypertension and heart failure” (The Research Foundation of State University of New York, priority 2001, dated 2007).
